{
  "source": "PubChem BioAssay AID1963827",
  "about": "(Molecular Pharmacology Branch, DTP, NCI, 2024);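 also: spheroids exposed to drugs for 7 days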;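 as to viability, T/C: 100% = DMSO vehicle treated spheroids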",
  "system": "994946-033-R-J1-PDC complex spheroid viability",
  "test": "Anticancer human tumor 994946-033-R-J1-PDC patient-derived melanoma cell line growth inhibition [POLQ]",
  "details": "for IC50: curve of first compound; for viability, T/C: stronger effect = lower value",
  "summary_of_the_method": "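Complex spheroid viability model combining PDC tumour cells with endothelial (HUVEC) and MSC stromal cells. Novobiocin, ART-558 or RP6685 were tested singly and in combination with standard and investigational anticancer drugs. Each was titrated in half-log steps from near clinical Cmax, or from 10 microM where Cmax was unknown.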",
  "data": [
    {"smiles": "CC(=O)O[C@H]1C(=O)[C@@]2(C)[C@H]([C@H](OC(=O)c3ccccc3)[C@]3(O)C[C@H](OC(=O)[C@H](O)[C@@H](NC(=O)c4ccccc4)c4ccccc4)C(C)=C1C3(C)C)[C@]1(OC(C)=O)CO[C@@H]1C[C@@H]2O", "note": "+ Cc1cccc(N(C)C(=O)C2C(O)CCN2c2nc(C)cc(C(F)(F)F)c2C#N)c1", "values": [
      {"measurement": "IC50", "setting": "second compound 0.0316 µM", "result": "< 9.49", "unit": "nM"},
      {"measurement": "IC50", "setting": "second compound 0.1 µM", "result": "< 9.49", "unit": "nM"},
      {"measurement": "IC50", "setting": "second compound 0.316 µM", "result": "< 9.49", "unit": "nM"},
      {"measurement": "IC50", "setting": "second compound 1 µM", "result": "< 9.49", "unit": "nM"},
      {"measurement": "IC50", "setting": "second compound 3.16 µM", "result": "< 9.49", "unit": "nM"},
      {"measurement": "IC50", "setting": "second compound 10 µM", "result": "< 9.49", "unit": "nM"},
      {"measurement": "viability, T/C", "setting": "second compound 0.0316 µM, first compound 0.00949 µM", "result": 19.5, "unit": "%"},
      {"measurement": "viability, T/C", "setting": "second compound 0.0316 µM, first compound 0.03 µM", "result": 19.7, "unit": "%"},
      {"measurement": "viability, T/C", "setting": "second compound 0.0316 µM, first compound 0.0949 µM", "result": 20.6, "unit": "%"},
      {"measurement": "viability, T/C", "setting": "second compound 0.0316 µM, first compound 0.3 µM", "result": 13.5, "unit": "%"},
      {"measurement": "viability, T/C", "setting": "second compound 0.0316 µM, first compound 0.949 µM", "result": 9.96, "unit": "%"},
      {"measurement": "viability, T/C", "setting": "second compound 0.0316 µM, first compound 3 µM", "result": 8.94, "unit": "%"},
      {"measurement": "viability, T/C", "setting": "second compound 0.1 µM, first compound 0.00949 µM", "result": 22.4, "unit": "%"},
      {"measurement": "viability, T/C", "setting": "second compound 0.1 µM, first compound 0.03 µM", "result": 20.6, "unit": "%"},
      {"measurement": "viability, T/C", "setting": "second compound 0.1 µM, first compound 0.0949 µM", "result": 16.8, "unit": "%"},
      {"measurement": "viability, T/C", "setting": "second compound 0.1 µM, first compound 0.3 µM", "result": 16.8, "unit": "%"},
      {"measurement": "viability, T/C", "setting": "second compound 0.1 µM, first compound 0.949 µM", "result": 10.6, "unit": "%"},
      {"measurement": "viability, T/C", "setting": "second compound 0.1 µM, first compound 3 µM", "result": 12.3, "unit": "%"},
      {"measurement": "viability, T/C", "setting": "second compound 0.316 µM, first compound 0.00949 µM", "result": 16.1, "unit": "%"},
      {"measurement": "viability, T/C", "setting": "second compound 0.316 µM, first compound 0.03 µM", "result": 31.9, "unit": "%"},
      {"measurement": "viability, T/C", "setting": "second compound 0.316 µM, first compound 0.0949 µM", "result": 16.3, "unit": "%"},
      {"measurement": "viability, T/C", "setting": "second compound 0.316 µM, first compound 0.3 µM", "result": 15.3, "unit": "%"},
      {"measurement": "viability, T/C", "setting": "second compound 0.316 µM, first compound 0.949 µM", "result": 14.7, "unit": "%"},
      {"measurement": "viability, T/C", "setting": "second compound 0.316 µM, first compound 3 µM", "result": 14.6, "unit": "%"},
      {"measurement": "viability, T/C", "setting": "second compound 1 µM, first compound 0.00949 µM", "result": 23.4, "unit": "%"},
      {"measurement": "viability, T/C", "setting": "second compound 1 µM, first compound 0.03 µM", "result": 21.8, "unit": "%"},
      {"measurement": "viability, T/C", "setting": "second compound 1 µM, first compound 0.0949 µM", "result": 18.9, "unit": "%"},
      {"measurement": "viability, T/C", "setting": "second compound 1 µM, first compound 0.3 µM", "result": 19.6, "unit": "%"},
      {"measurement": "viability, T/C", "setting": "second compound 1 µM, first compound 0.949 µM", "result": 12.4, "unit": "%"},
      {"measurement": "viability, T/C", "setting": "second compound 1 µM, first compound 3 µM", "result": 12.7, "unit": "%"},
      {"measurement": "viability, T/C", "setting": "second compound 3.16 µM, first compound 0.00949 µM", "result": 23, "unit": "%"},
      {"measurement": "viability, T/C", "setting": "second compound 3.16 µM, first compound 0.03 µM", "result": 24.2, "unit": "%"},
      {"measurement": "viability, T/C", "setting": "second compound 3.16 µM, first compound 0.0949 µM", "result": 20.3, "unit": "%"},
      {"measurement": "viability, T/C", "setting": "second compound 3.16 µM, first compound 0.3 µM", "result": 17.3, "unit": "%"},
      {"measurement": "viability, T/C", "setting": "second compound 3.16 µM, first compound 0.949 µM", "result": 14.5, "unit": "%"},
      {"measurement": "viability, T/C", "setting": "second compound 3.16 µM, first compound 3 µM", "result": 12.9, "unit": "%"},
      {"measurement": "viability, T/C", "setting": "second compound 10 µM, first compound 0.00949 µM", "result": 21.6, "unit": "%"},
      {"measurement": "viability, T/C", "setting": "second compound 10 µM, first compound 0.03 µM", "result": 26.2, "unit": "%"},
      {"measurement": "viability, T/C", "setting": "second compound 10 µM, first compound 0.0949 µM", "result": 23.9, "unit": "%"},
      {"measurement": "viability, T/C", "setting": "second compound 10 µM, first compound 0.3 µM", "result": 18.5, "unit": "%"},
      {"measurement": "viability, T/C", "setting": "second compound 10 µM, first compound 0.949 µM", "result": 15, "unit": "%"},
      {"measurement": "viability, T/C", "setting": "second compound 10 µM, first compound 3 µM", "result": 15.7, "unit": "%"}
    ]}
  ]
}
